Reference: ChEMBL document CHEMBL1143495, “Topological model for the prediction of MRP1 inhibitory activity of pyrrolopyrimidines and templates derived from pyrrolopyrimidine” (Bioorg Med Chem Lett, 2005)

biological target: Multidrug resistance-associated protein 1 (Homo sapiens, UniProt P33527); assay: Inhibitory concentration against multidrug resistance associated protein 1
Sequence (P33527 whole entry): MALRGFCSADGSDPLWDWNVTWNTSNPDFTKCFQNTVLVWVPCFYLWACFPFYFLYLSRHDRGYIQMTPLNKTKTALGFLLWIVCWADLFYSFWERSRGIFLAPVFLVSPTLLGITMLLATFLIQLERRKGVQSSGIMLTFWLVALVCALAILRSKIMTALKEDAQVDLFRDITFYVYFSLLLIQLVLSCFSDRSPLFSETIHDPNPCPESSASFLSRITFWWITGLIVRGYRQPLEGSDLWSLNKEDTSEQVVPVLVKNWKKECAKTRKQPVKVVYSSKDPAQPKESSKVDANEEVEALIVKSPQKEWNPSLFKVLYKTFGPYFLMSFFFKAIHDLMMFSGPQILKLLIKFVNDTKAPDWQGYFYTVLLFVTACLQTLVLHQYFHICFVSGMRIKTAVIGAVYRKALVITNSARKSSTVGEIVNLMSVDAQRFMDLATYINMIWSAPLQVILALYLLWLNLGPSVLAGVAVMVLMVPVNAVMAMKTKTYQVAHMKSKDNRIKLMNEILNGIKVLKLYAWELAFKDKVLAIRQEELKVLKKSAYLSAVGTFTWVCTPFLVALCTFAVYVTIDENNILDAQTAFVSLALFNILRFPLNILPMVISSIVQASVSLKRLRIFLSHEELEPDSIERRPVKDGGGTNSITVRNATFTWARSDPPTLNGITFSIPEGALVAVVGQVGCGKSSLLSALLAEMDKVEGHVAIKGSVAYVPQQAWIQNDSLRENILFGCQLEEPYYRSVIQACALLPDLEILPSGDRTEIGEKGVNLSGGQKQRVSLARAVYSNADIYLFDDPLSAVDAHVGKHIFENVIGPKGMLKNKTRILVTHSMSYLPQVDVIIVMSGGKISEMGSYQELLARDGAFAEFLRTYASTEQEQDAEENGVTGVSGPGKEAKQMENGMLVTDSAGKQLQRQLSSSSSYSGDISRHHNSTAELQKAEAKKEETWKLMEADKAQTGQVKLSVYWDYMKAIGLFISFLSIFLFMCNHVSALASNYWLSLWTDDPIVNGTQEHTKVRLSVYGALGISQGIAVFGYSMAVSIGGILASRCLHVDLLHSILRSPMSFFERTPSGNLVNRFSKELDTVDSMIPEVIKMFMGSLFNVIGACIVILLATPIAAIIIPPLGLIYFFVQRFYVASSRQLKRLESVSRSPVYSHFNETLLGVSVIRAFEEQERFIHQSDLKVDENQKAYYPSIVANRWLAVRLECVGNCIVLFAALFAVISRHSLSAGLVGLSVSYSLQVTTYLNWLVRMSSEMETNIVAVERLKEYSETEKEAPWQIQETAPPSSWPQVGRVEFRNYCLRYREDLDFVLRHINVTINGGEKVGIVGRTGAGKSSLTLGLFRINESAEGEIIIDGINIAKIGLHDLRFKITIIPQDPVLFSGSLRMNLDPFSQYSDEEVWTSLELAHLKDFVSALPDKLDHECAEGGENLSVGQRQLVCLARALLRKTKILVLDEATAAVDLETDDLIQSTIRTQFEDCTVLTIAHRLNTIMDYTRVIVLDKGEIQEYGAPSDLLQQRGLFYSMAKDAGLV

Structure (SMILES) | IC50
CN(CCc1ccccc1)c1ncnc2c(C#N)c3n(c12)CCCC3 | ≥ 250 nM
N#Cc1c2n(c3c(N4CCN(S(=O)(=O)Cc5ccccc5)CC4)ncnc13)CCCC2 | ≥ 250 nM
CCOC(=O)Cn1c2cccc(C(N)=O)c2c2ncnc(N3CCN(CCc4ccc(F)c(F)c4)CC3)c21 | < 250 nM
Cc1cnc2c(c1C(N)=O)c1ncnc(N3CCN(CCc4ccc(F)c(F)c4)CC3)c1n2C | < 250 nM
N#Cc1c2n(c3c(N4CCN(CCc5ccc(Cl)cc5)CC4)ncnc13)CCCC2 | ≥ 250 nM
N#Cc1c2n(c3c(N4CCN(CCc5ccccc5)CC4)nc(I)nc13)CCCC2 | ≥ 250 nM
N#Cc1c2n(c3c(N4CCN(CCCc5ccccc5)CC4)ncnc13)CCCC2 | ≥ 250 nM
Cc1cnc2c(c1C#N)c1ncnc(N3CCN(CCc4ccc(F)c(F)c4)CC3)c1n2C | ≥ 250 nM
c1ccc(CCN2CCN(c3ncnc4c(-c5ncccn5)c5n(c34)CCCC5)CC2)cc1 | ≥ 250 nM
COc1cccc(CNC(=O)c2c3n(c4c(N5CCN(CCc6ccc(F)c(F)c6)CC5)ncnc24)CCCC3)c1OC | < 250 nM
COC(=O)c1c2n(c3c(N4CCN(CCc5ccccc5)CC4)ncnc13)CCCC2 | ≥ 250 nM
N#Cc1c2n(c3c(N4CCN(CCc5cccc(Cl)c5)CC4)ncnc13)CCCC2 | ≥ 250 nM
Cc1ccccc1-c1nc(N2CCN(CCc3ccc(F)c(F)c3)CC2)c2c(n1)c(C#N)c1n2CCCC1 | ≥ 250 nM
N#Cc1c2n(c3c(N4CCN(CCc5ccc(F)c(F)c5)CC4)nc(-c4ccncc4)nc13)CCCC2 | < 250 nM
N#Cc1c2n(c3c(N4CCN(CCc5cccc([N+](=O)[O-])c5)CC4)ncnc13)CCCC2 | ≥ 250 nM
N#Cc1c2n(c3c(N4CCN(CCc5ccc(F)c(F)c5)CC4)ncnc13)CCCC2 | < 250 nM
CC(=O)Nc1ccc(-c2nc(N3CCN(CCc4ccccc4)CC3)c3c(n2)c(C#N)c2n3CCCC2)cc1 | ≥ 250 nM
N#Cc1c2n(c3c(NCCN4CCc5ccccc5C4)ncnc13)CCCC2 | ≥ 250 nM

Structure (SMILES) | IC50
O=C(NCc1ccccn1)c1c2n(c3c(N4CCN(CCc5ccc(F)c(F)c5)CC4)ncnc13)CCCC2 | < 250 nM
N#Cc1c2n(c3c(N4CCN(CCc5ccccc5[N+](=O)[O-])CC4)ncnc13)CCCC2 | ≥ 250 nM
N#Cc1c2n(c3c(NCCc4ccccc4)ncnc13)CCCC2 | ≥ 250 nM
Cc1nc(-c2c3n(c4c(N5CCN(CCc6ccccc6)CC5)ncnc24)CCCC3)no1 | ≥ 250 nM
N#Cc1c2n(c3c(N4CCN(CCc5ccccc5Cl)CC4)ncnc13)CCCC2 | ≥ 250 nM
N#Cc1c2n(c3c(N4CCN(CCc5c[nH]c6ccccc56)CC4)ncnc13)CCCC2 | ≥ 250 nM
CCC(=O)c1c2n(c3c(N4CCN(CCc5ccccc5)CC4)ncnc13)CCCC2 | ≥ 250 nM
COc1ccc(CCN2CCN(c3ncnc4c(C#N)c5n(c34)CCCC5)CC2)cc1 | ≥ 250 nM
O=C(c1ccccc1)c1c2n(c3c(N4CCN(CCc5ccccc5)CC4)ncnc13)CCCC2 | ≥ 250 nM
N#Cc1c2n(c3c(N4CCN(CC(=O)c5ccccc5)CC4)ncnc13)CCCC2 | ≥ 250 nM
N#Cc1c2n(c3c(NS(=O)(=O)Cc4ccccc4)ncnc13)CCCC2 | ≥ 250 nM
Cc1nc(-c2c3n(c4c(N5CCN(CCc6ccccc6)CC5)ncnc24)CCCC3)sc1C | ≥ 250 nM
COc1cccc(CCN2CCN(c3ncnc4c(C#N)c5n(c34)CCCC5)CC2)c1 | ≥ 250 nM
N#Cc1c2n(c3c(N4CCN(CCc5ccccc5)CC4)nc(-c4ccccc4)nc13)CCCC2 | ≥ 250 nM
NC(=O)c1c2n(c3c(N4CCN(CCc5ccc(F)c(F)c5)CC4)ncnc13)CCCC2 | < 250 nM
N#Cc1c2n(c3c(N4CCN(CCc5ccc(F)c(F)c5)CC4)nc(-c4cccnc4)nc13)CCCC2 | < 250 nM
Cc1c([N+](=O)[O-])nc2c(c1C(N)=O)c1ncnc(N3CCN(CCc4ccc(F)c(F)c4)CC3)c1n2C | < 250 nM
N#Cc1c2n(c3c(N4CCN(CCc5ccc([N+](=O)[O-])cc5)CC4)ncnc13)CCCC2 | ≥ 250 nM
